Measurements taken from patent US20070167456A1, “Mercaptoimidazoles as ccr2 receptor antagonists” (priority 2004, published 2007).

Target: T1, CCR2 receptor (Homo sapiens, UniProt P41597)
T1 construct: host or cells: THP-1 (human monocytic cell line)
T1 sequence (P41597 1-360 isoform P41597-2): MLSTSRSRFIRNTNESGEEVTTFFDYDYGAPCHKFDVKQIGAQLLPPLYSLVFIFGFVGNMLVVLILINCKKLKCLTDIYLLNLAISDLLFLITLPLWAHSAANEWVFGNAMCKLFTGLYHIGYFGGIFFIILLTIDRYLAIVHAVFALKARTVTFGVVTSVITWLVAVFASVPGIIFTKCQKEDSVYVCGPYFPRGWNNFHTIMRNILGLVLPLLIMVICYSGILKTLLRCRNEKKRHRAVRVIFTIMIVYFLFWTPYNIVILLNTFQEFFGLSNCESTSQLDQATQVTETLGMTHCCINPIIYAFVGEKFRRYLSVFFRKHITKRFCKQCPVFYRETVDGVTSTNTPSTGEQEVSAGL
Assay: Inhibition of MCP-1 induced Ca-flux in human THP-1 cells
Type: cell-based
Conditions: inhibition of specific MCP-1 induced Ca2+ flux, 10^-7 M hMCP-1, 20 minutes pre-incubation, FLIPR, Fluo-3 AM
Protocol: Inhibition of MCP-1 Induced Ca-flux in Human THP-1 Cells
MCP-1 binding to the CCR2 receptor induces a rapid and transient intracellular release of Ca^2+ (secondary messenger) in several cell lines (Charo et al, PNAS 1994). Free Ca^2+ levels can be measured using a Ca^2+ sensitive dye. When the CCR2 receptor is blocked with a CCR2 receptor antagonist, the MCP-1 induced release of Ca^2+ is inhibited.
Human THP-1 cells (monocytic cell line, ATCC TIB-202) were cultured in RPMI 1640 medium supplemented with 10% fetal calf serum (FCS), 1% L-Glutamine, penicillin (50 U/ml) and streptomycin (50 μg/ml) (all GIBCO BRL, Gent). After centrifugation, cells were loaded for 30 minutes with the Ca^2+ sensitive fluorescent dye Fluo-3 AM (Molecular Probes, Leiden, Netherlands) (2 million cells/ml in RPMI medium containing 4 μM Fluo-3 AM, 20 mM HEPES, 0.1% Bovine Serum Albumin (BSA) and 5 mM probenecid). Excess dye was removed by 3-fold washing with buffer (5 mM HEPES, 140 mM NaCl, 1 mM MgCl2, 5 mM KCl, 10 mM glucose, 2.5 mM probenecid, 1.25 mM CaCl2, 0.1% BSA; all further incubations were done in this buffer). Cells were plated at a density of 150 000 cells/well in dark-wall 96-well plates (Costar, Cambridge, Mass.) and sedimented by centrifugation (1 minute). The cells were pre-incubated for 20 minutes with test compound. Then, 10^−7 M hMCP-1 (Bachem, Bubendorf, Switserland) was added. Changes in intracellular free Ca^2+ concentration were measured using the Fluorescent Imaging Plate Reader (FLIPR, Molecular Devices, Munchen, Germany). Fluorescence was recorded every second from 10 seconds before the addition of the MCP-1 till 2 minutes after the addition (first minute: 60 records with 1 second intervals, second minute 20 records with 3 second intervals). The maximal fluorescence obtained during this time frame was used for further calculations.
Table 3 reports pIC50 values obtained in the above-described test for compounds of formula (I). pIC50 defines −log IC50 wherein IC50 is the molar concentration of the test compound which inhibits 50% of specific MCP-1 induced Ca^2+ flux.
In the case of CCC(c1ccc(Cl)c(Cl)c1)n1c(C(=O)OC)c(NC(=O)C2CCOC2)[nH]c1=S (stereo not drawn) [Compound 13], the IC50 is reported as 79.4 nM. Work on CCC(c1ccc(Cl)c(Cl)c1)n1c(C(=O)OC)c(NC(=O)c2cncnc2)[nH]c1=S (stereo not drawn) [Compound 9] yielded an IC50 of 200 nM. CCC(c1ccc(Cl)c(Cl)c1)n1c(C(=O)OC)c(NC(=O)c2cc(C)on2)[nH]c1=S (stereo not drawn) [Compound 7] showed an IC50 of 158 nM. CCC(c1ccc(Cl)c(Cl)c1)n1c(C(=O)OC)c(NC(=O)N2CCN(C)CC2)[nH]c1=S (stereo not drawn) [Compound 20] showed an IC50 of 316 nM. In the case of CCC(c1ccc(Cl)c(Cl)c1)n1c(C(=O)OC)c(NC(=O)c2cnccn2)[nH]c1=S (stereo not drawn) [Compound 3], the IC50 is reported as 79.4 nM. In the case of CCC(c1ccc(Cl)c(Cl)c1)n1c(C(=O)OC)c(NC(C)=O)[nH]c1=S (stereo not drawn) [Compound 2], the IC50 is reported as 50.1 nM. CCC(=O)Nc1[nH]c(=S)n(C(CC)c2ccc(Cl)c(Cl)c2)c1C(=O)OC (stereo not drawn) [Compound 4] showed an IC50 of 126 nM. CCC(c1ccc(Cl)c(Cl)c1)n1c(C(=O)OC)c(NC(=O)N2CCN(Cc3ccccc3)CC2)[nH]c1=S (stereo not drawn) [Compound 22] showed an IC50 of 398 nM. Work on CCC(c1ccc(Cl)c(Cl)c1)n1c(C(=O)OC)c(NC(=O)c2cccnc2)[nH]c1=S (stereo not drawn) [Compound 5] yielded an IC50 of 200 nM. Work on CCC(c1ccc(Cl)c(Cl)c1)n1c(C(=O)OC)c(NC(=O)N2CCCC2)[nH]c1=S (stereo not drawn) [Compound 21] yielded an IC50 of 126 nM. CCC(c1ccc(Cl)c(Cl)c1)n1c(C(=O)OC)c(N)[nH]c1=S (stereo not drawn) [Compound 1] gave an IC50 of 63.1 nM. In the case of CCC(c1ccc(Cl)c(Cl)c1)n1c(C(=O)OC)c(NC(=O)c2ccco2)[nH]c1=S (stereo not drawn) [Compound 11], the IC50 is reported as 25.1 nM. CCC(c1ccc(Cl)c(Cl)c1)n1c(C(=O)OC)c(NC(=O)c2nonc2C)[nH]c1=S (stereo not drawn) [Compound 8] showed an IC50 of 501 nM. Work on CCC(c1ccc(Cl)c(Cl)c1)n1c(C(=O)OC)c(NC(=O)N2CCCCC2)[nH]c1=S (stereo not drawn) [Compound 23] yielded an IC50 of 158 nM. Work on CCC(c1ccc(Cl)c(Cl)c1)n1c(C(=O)OC)c(NC(=O)c2ccncc2)[nH]c1=S (stereo not drawn) [Compound 6] yielded an IC50 of 126 nM. CCC(c1ccc(Cl)c(Cl)c1)n1c(C(=O)OC)c(NC(=O)OC)[nH]c1=S (stereo not drawn) [Compound 15] showed an IC50 of 15.8 nM. Work on CCC(c1ccc(Cl)c(Cl)c1)n1c(C(=O)OC)c(NC(=O)c2ccccn2)[nH]c1=S (stereo not drawn) [Compound 12] yielded an IC50 of 39.8 nM. In the case of CCC(c1ccc(Cl)c(Cl)c1)n1c(C(=O)OC)c(NC(=O)NCc2ccccc2)[nH]c1=S (stereo not drawn) [Compound 17], the IC50 is reported as 631 nM. Compound CCC(c1ccc(Cl)c(Cl)c1)n1c(C(=O)OC)c(NC(=O)NCC(OC)OC)[nH]c1=S (stereo not drawn) [Compound 16] has an IC50 of 251 nM. Work on CCC(c1ccc(Cl)c(Cl)c1)n1c(C(=O)OC)c(NC(=O)c2ccccc2)[nH]c1=S (stereo not drawn) [Compound 10] yielded an IC50 of 200 nM. Compound CCC(c1ccc(Cl)c(Cl)c1)n1c(C(=O)OC)c(NC(=O)N2CCOCC2)[nH]c1=S (stereo not drawn) [Compound 18] has an IC50 of 100 nM. CCC(c1ccc(Cl)c(Cl)c1)n1c(C(=O)OC)c(NC(=O)C2CCCO2)[nH]c1=S (stereo not drawn) [Compound 19] gave an IC50 of 79.4 nM.

System: not given
Assay: not given
Conditions: not given
In the case of CCC(c1ccc(Cl)c(Cl)c1)n1c(C(=O)OC)c(NC(=O)c2cnccn2)[nH]c1=S (stereo not drawn) [Compound 3], the melting point is reported as 196.9 to 198.6 °C. CCC(c1ccc(Cl)c(Cl)c1)n1c(C(=O)OC)c(N)[nH]c1=S (stereo not drawn) [Compound 1] gave a melting point of 183.9 to 184 °C.
